According to article PMC9775652, “Concomitant Administration of Red Ginseng Extract with Lactic Acid Bacteria Increases the Plasma Concentration of Deglycosylated Ginsenosides in Healthy Human Subjects” (Biomolecules, 2022):
Read-outs that look alike come from different tables or passages of the source.

Experiments:
P-gp = target: T1, P-gp (Homo sapiens, UniProt P08183); test: Transport of ginsenosides in P-gp-overexpressing LLC-PK1-P-gp cells; type: in vitro ADME; settings: pig, 20 μM
T1 construct: host or cells: LLC-PK1-P-gp cells (passage no. 25–28)
T1 sequence (P08183 whole entry): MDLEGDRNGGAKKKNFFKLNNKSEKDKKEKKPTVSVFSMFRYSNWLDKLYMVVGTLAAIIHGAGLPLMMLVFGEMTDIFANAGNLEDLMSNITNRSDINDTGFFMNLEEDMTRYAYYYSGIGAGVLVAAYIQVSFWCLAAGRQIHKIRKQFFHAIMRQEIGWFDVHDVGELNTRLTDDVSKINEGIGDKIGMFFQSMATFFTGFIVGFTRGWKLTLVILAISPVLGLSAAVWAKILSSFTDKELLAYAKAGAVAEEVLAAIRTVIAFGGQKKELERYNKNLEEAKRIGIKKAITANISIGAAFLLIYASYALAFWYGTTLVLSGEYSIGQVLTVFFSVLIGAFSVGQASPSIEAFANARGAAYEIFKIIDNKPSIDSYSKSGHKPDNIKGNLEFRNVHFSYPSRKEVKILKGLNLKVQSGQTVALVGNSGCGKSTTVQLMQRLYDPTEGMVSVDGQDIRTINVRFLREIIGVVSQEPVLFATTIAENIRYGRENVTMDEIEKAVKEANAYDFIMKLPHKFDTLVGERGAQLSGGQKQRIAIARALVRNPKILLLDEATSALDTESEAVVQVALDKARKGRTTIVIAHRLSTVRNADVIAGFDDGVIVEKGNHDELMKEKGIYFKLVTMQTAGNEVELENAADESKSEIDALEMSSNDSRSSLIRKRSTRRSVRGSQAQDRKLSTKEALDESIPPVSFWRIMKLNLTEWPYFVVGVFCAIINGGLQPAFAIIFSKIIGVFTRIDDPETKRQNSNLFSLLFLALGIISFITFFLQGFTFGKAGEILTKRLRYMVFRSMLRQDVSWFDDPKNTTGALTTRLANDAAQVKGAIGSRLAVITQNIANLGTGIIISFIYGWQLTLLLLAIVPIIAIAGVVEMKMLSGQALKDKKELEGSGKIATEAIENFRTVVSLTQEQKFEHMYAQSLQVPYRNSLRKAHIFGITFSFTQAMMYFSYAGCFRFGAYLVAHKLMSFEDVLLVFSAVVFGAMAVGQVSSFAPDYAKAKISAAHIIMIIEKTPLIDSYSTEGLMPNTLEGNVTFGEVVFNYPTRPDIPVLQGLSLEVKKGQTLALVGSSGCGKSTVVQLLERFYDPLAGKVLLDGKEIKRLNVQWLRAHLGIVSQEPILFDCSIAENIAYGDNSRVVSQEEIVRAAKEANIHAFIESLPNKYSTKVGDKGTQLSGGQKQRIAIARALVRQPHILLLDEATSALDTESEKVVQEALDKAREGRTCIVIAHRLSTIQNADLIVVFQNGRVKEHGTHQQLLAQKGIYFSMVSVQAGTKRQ
Experimental: (§1) LLC-PK1-P-gp cells (passage no. 25–28) were seeded onto collagen-coated permeable support (1.0 μm pore size) in 24-well plates at a density of 2.5 × 10^4 cells/insert and grown for 5 days with TEER values of over 500 Ω·cm^2 [24]. The A to B transport and B to A transport of GRg3, GRh2, CK, PPD, GRg1, GRh1, and PPT (20 μM each) were measured as previously described. The concentration dependency in the B to A transport of GRh2, CK, PPD, and PPT was measured in the range of 6.25–200 μM for GRh2, CK, PPD, and PPT.
(§2) For the transport study of ginsenosides in CaCo-2 cells and LLC-PK1-P-gp cells, the ginsenoside transport rate in the A to B or B to A directions was calculated from the slope of the regression line from the mean transported amounts versus time plot. The apparent permeability (Papp) was calculated using Equation (1). (1) Papp (×10^−6 cm/s)=transport rate (nmol/min)/concentration(μM)×area(cm^2)×60s
(§3) The efflux ratio was calculated by dividing the Papp of ginsenosides from the B to A direction by that from the A to B direction.
(§4) To measure the kinetic parameters of the concentration dependence on the P-gp-mediated ginsenoside efflux, the ginsenoside transport rate in the B to A direction (ν) versus the ginsenoside concentration (S) plot was fitted in the Michaelis–Menten Equation (2) using Sigma Plot (version 12.0, Systat Software Inc. Chicago, IL, USA). (2) ν=Vmax×S/Km+S

[1] = Transport (permeability) of ginsenosides in CaCo-2 cell monolayers; type: in vitro ADME; settings: human; CaCo-2 cell monolayers, 50 µM ginsenoside; read-out: A to B Papp
Experimental: (§5) CaCo-2 cells (passage no 41–43) were seeded onto collagen-coated permeable support (1.0 μm pore size) in a 24-well plate at a density of 2.5 × 10^4 cells/insert and cultured for 21 days in Dulbecco’s modified eagle’s medium supplemented with 10% fetal bovine serum, 1% non-essential amino acids, and 1% penicillin-streptomycin at 37 °C in a humidified atmosphere (5% CO2/95% air). After confirming that the transepithelial electrical resistance (TEER) of the CaCo-2 cell monolayer was over 400 Ω·cm^2, Apical to basal (A to B) transport and B to A transport of ginsenosides using 50 µM, GRb1 was investigated as previously described. The same permeability study was performed using 50 µM GRb2, GRc, GRd, GRg3, GRh2, GF2, CK, PPD, GRe, GRf, GRg1, GRh1, GF1, or PPT.
as §2, §3

LAB [2] = test: In vitro RGE fermentation with LAB; type: in vitro ADME
Experimental: (§6) To identify the effects of LAB on ginsenoside metabolism, an in vitro fermentation study was performed according to the method of Jeon et al., with slight modifications. Briefly, RGE (10 mL, 1 pouch) and 2 g LAB (containing 1 billion CFU) were suspended in 10 mL autoclaved MRS broth (550 mg broth powder dissolved in 10 mL water). For the 15 ginsenosides, individual ginsenosides (10 μM each) and 2 g of LAB were suspended in 20 mL of autoclaved MRS broth (550 mg broth powder dissolved in 20 mL water). The mixture was incubated for 7 days in a shaking incubator at 37 °C and 300 rpm, and a 0.1 mL aliquot of the incubation mixture was collected on days 0, 3, 5, and 7. The incubation medium was diluted 100-fold with distilled water and stored at −80 °C to analyze ginsenosides using the LC-MS/MS system.
(§7) To measure the metabolic activity of ginsenosides, the formation rate of ginsenosides (pmol/day) was calculated by dividing the slope of the regression line by the amount of deglycosylated ginsenosides versus the incubation time plot by the initial concentration of individual ginsenosides.

LAB [3] = test: Incubation of individual ginsenosides with LAB (metabolic pathway); type: in vitro ADME; settings: individual ginsenoside 10 μM with LAB (1 billion CFU), 7 days; GF2 to CK, CK to PPD, GRg1 to GRh1; result in words
Experimental: as §6, §7

CaCo-2 cells = test: Transport (permeability) of ginsenosides in CaCo-2 cell monolayers; type: in vitro ADME; settings: Caco-2
Experimental: as §5, §2, §3

[4] = Pharmacokinetic study of ginsenosides in healthy humans after repeated oral RGE with or without LAB; type: in vivo, human; settings: human, in vivo, po
Experimental: A single-sequence study consisting of two periods was conducted on five healthy male subjects (body weight > 50 kg and age > 19 years) for 29 days. During the first period of the study (RGE treatment group), three pouches of RGE (30 mL, 104.1 mg of total ginsenosides) were administered to 5 subjects once daily for 14 days. On the 14th day, the subjects were admitted to the Clinical Trial Center of KNUH at 7 AM and underwent the last RGE administration at approximately 8–9 AM. Blood samples (approximately 3 mL) were collected at 0, 4, 6, 8, 10, 12, 13, 14, and 24 h after the last dose. A saline-locked angiocatheter was placed on the forearm of each subject’s hand. After discarding 1 mL of blood derived from the catheter, 3 mL of blood was drawn into a vacutainer tube containing heparin and centrifuged at 3000× g for 10 min. The supernatant plasma samples were stored at −80 °C until ginsenoside analysis.
In the second half of the study (RGE + LAB treatment group), 3 pouches of RGE (30 mL, 104.1 mg of total ginsenosides) and 1 pouch of LAB (1 billion CFU/2 g) were co-administered once daily for 14 days. On the […], the subjects were admitted to the Clinical Trial Center of KNUH at 7 AM and received the last red ginseng dose at approximately 8–9 AM. Blood samples (approximately 3 mL) were withdrawn at 0, 4, 6, 8, 10, 12, 13, 14, and 24 h intervals after the last dose and centrifuged at 3000× g for 10 min; the supernatant plasma samples were stored at −80 °C.
Briefly, to analyze GRb1, GRb2, GRc, GRd, GRe, GRf, GRg1, GRg3, GF1, and GF2, 400 μL of an internal standard (IS; 0.05 ng/mL berberine in methanol) was added to 100 μL of plasma. The mixture was vortexed for 15 min and centrifuged at 16,000× g for 5 min. After centrifugation, 400 μL of the supernatant was evaporated using a speed-dry vacuum concentrator (Christ, Osterode am Harz, Germany). The residue was reconstituted using 200 μL of 70% methanol supplemented with 0.1% formic acid, and a 10 μL aliquot was injected into the LC-MS/MS system. Chromatographic separation was performed using a Polar RP column (150 × 2.0 mm, 4.0 μm particle size; Phenomenex, Torrance, CA, USA) using a mobile phase consisting of 0.1% formic acid in water (phase A) and 0.1% formic acid in methanol (phase B). The following elution gradient was used: 69% of phase B for 0–2.0 min, 69–85% of phase B for 2.0–4.0 min, and 85–69% of phase B for 6.0–6.5 min. The flow rate was 0.27 mL/min.
The mixture was vortexed for 10 min and centrifuged at 16,000× g for 5 min. After centrifugation, the samples were frozen at −80 °C for 4 h. The upper layer was transferred to a clean tube and evaporated. The residue was reconstituted using 200 μL of 80% methanol supplemented with 0.1% formic acid, and a 10 μL aliquot was injected into the LC-MS/MS system. Chromatographic separation was performed using a Luna C18 column (150 × 2.0 mm, 3.0 μm particle size; Phenomenex, Torrance, CA, USA) and using a mobile phase consisting of water containing 0.1% formic acid: methanol containing 0.1% formic acid = 8:92 (v/v) at a flow rate of 0.15 mL/min.
The quantification of ginsenosides was carried out using multiple reaction monitoring in positive ionization mode, as previously described.
Finally, pharmacokinetic parameters were calculated using non-compartmental methods (WinNonlin version 5.1; Pharsight Co., Certara, NJ, USA). Statistical analysis was performed by Student’s t-test to compare the two groups using IBM SPSS Statistics for Windows (version 25.0; IBM Corp., Armonk, NY, USA). Differences were considered significant at p < 0.05.

[5] = rat, in vivo, po; cited from earlier work
[6] = tested on: T2, CC(C)=CCCC(C)(OC1OC(CO)C(O)C(O)C1O)C1CCC2(C)C1C(O)CC1C3(C)CCC(O)C(C)(C)C3CCC12C; test: Transport of ginsenosides in P-gp-overexpressing LLC-PK1-P-gp cells; type: in vitro ADME; settings: other: B to A transport rate in LLC-PK1-P-gp cells, 6.25–200 μM, Michaelis–Menten fit
T2 construct: host or cells: LLC-PK1-P-gp cells (passage no. 25–28)
Experimental: as §1, §2, §3, §4

[7] = tested on: T3, CC(C)=CCCC(C)(O)C1CCC2(C)C1C(O)CC1C3(C)CCC(O)C(C)(C)C3CCC12C; test: as above; type: in vitro ADME; settings: other: B to A transport rate in LLC-PK1-P-gp cells, 6.25–200 μM, Michaelis–Menten fit
T3 construct: host or cells: LLC-PK1-P-gp cells (passage no. 25–28)
Experimental: as §1, §2, §3, §4

[8] = tested on: T4, CC(C)=CCCC(C)(O)C1CCC2(C)C1C(O)CC1C3(C)CCC(O)C(C)(C)C3C(O)CC12C; test: as above; type: in vitro ADME; settings: other: B to A transport rate in LLC-PK1-P-gp cells, 6.25–200 μM, Michaelis–Menten fit
T4 construct: host or cells: LLC-PK1-P-gp cells (passage no. 25–28)
Experimental: as §1, §2, §3, §4

[9] = tested on: T5, [H][C@@]1(O[C@H]2CC[C@]3(C)[C@@]4([H])C[C@@H](O)[C@]5([H])[C@@]([H])([C@@](C)(O)CCC=C(C)C)CC[C@@]5(C)[C@]4(C)CC[C@@]3([H])C2(C)C)O[C@H](CO)[C@@H](O)[C@H](O)[C@H]1O; test: as above; type: in vitro ADME; settings: other: B to A transport rate in LLC-PK1-P-gp cells, 6.25–200 μM, Michaelis–Menten fit
T5 construct: host or cells: LLC-PK1-P-gp cells (passage no. 25–28)
Experimental: as §1, §2, §3, §4

CC(C)=CCCC(C)(OC1OC(CO)C(O)C(O)C1O)C1CCC2(C)C1C(O)CC1C3(C)CCC(O)C(C)(C)C3C(OC3OC(CO)C(O)C(O)C3O)CC12C (stereo not drawn) [GRg1]
efflux ratio at 20 μM (P-gp; LLC-PK1, LLC-PK1-P-gp cells, B to A Papp divided by A to B Papp, read-out: ER): 1
Papp A→B at 20 μM (P-gp; LLC-PK1-P-gp cells, mean ± SD, n = 3, read-out: A to B permeability): 0.1 ± 0.02 ×10⁻⁶ cm/s
Papp B→A at 20 μM (P-gp; LLC-PK1-P-gp cells, mean ± SD, n = 3, read-out: B to A permeability): 0.1 ± 0.03 ×10⁻⁶ cm/s
Papp A→B at 50 µM [1]: < 0.3 ×10⁻⁶ cm/s
Relative abundance / metabolic activity following fermentation of RGE with LAB (LAB [2]; RGE incubated with LAB (1 billion CFU) for 7 days at 37 °C, result in words): marked decrease
LAB-mediated deglycosylation (formation of deglycosylated ginsenoside from the incubated ginsenoside) (LAB [3]): the highest

CC(C)=CCC[C@](C)(O[C@@H]1O[C@H](CO)[C@@H](O)[C@H](O)[C@H]1O)[C@H]1CC[C@]2(C)[C@@H]1[C@H](O)C[C@@H]1[C@@]3(C)CC[C@H](O[C@@H]4O[C@H](CO)[C@@H](O)[C@H](O)[C@H]4O[C@@H]4O[C@H](CO)[C@@H](O)[C@H](O)[C@H]4O)C(C)(C)[C@@H]3CC[C@]12C [GRd]
A to B Papp (CaCo-2 cells): below 0.3 × 10^−6 cm/s
Cmax [4]: 2.1 ± 0.9 ng/mL
MRT [4]: 18.2 ± 1.4 h
Tmax [4]: 7.5 ± 5.8 h
AUC ([4]; 104.1 mg): 37.9 ± 12.6 ng·h/mL
Relative abundance / metabolic activity following fermentation of RGE with LAB (LAB [2]): marked decrease
Oral bioavailability (BA) [5]: less than 5%

P-gp (Homo sapiens)
Km [6]: 98 µM
Vmax [6]: 67.7 nmol/min
Km [7]: 76 µM
Vmax [7]: 0.40 nmol/min
Km [8]: 83 µM
Vmax [8]: 19.2 nmol/min
Km [9]: 151 µM
Vmax [9]: 75.9 nmol/min
